Values quoted from earlier work, collected in patent publication US20190274302A1, “COMPOSITIONS FOR ACTIVE TREATING AND […] DISEASES” (priority 2018, published 2019).
Where two headings read alike, the source gives them in different places.

Compound	pH (1 mM)	pH (10 mM)	pH (100 mM)
O=C(O)/C=C(/CC(=O)O)C(=O)O [cis-aconitic acid]	3.05	2.21	1.55
O=C(O)c1ccccc1 [benzoic acid]	3.66	3.12	2.60
O=CO [formic acid]	3.47	2.91	2.38
O=C1O[C@H]([C@@H](O)CO)C(O)=C1O [ascorbic acid]	3.59	3.04	2.53
Oc1ccccc1 [phenol]	6.47	5.99	5.49
O=C(O)/C=C(\CC(=O)O)C(=O)O [trans-aconitic acid]	3.14	2.48	1.92
CC(=O)O [acetic acid]	3.91	3.39	2.88

The next lines start with the values.

pH (1 mM)	pH (10 mM)	pH (100 mM)	Compound
3.00	2.09	1.31	O=C(O)C(=O)O [oxalic acid]
3.21	2.57	2.02	O=C(O)c1ccccc1O [salicylic acid]
3.33	2.74	2.21	O=C(O)CC(O)C(=O)O (stereo not drawn) [malic acid]
3.17	2.50	1.94	O=C(O)CC(=O)O [malonic acid]
3.24	2.62	2.08	O=C(O)CC(O)(CC(=O)O)C(=O)O [citric acid]
3.51	2.96	2.44	CC(O)C(=O)O (stereo not drawn) [lactic acid]
3.96	3.44	2.94	CCC(=O)O [propanoic acid]
